Results from paper PMC4503722, “Novel Phenotypic Outcomes Identified for a Public Collection of Approved Drugs from a Publicly Accessible Panel of Assays” (PLoS ONE, 2015).

Tested on: INS-1E cells
Test: cells
Assay type: cell-based, rat
Settings: 5 mM glucose; for 5mMGluc_INS1E SecretionMod IC50/EC50: assay number 8
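Note: secreted insulin quantified by homogeneous immunoassay.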

## COc1ccc(CN(CCN(C)C)c2ccccn2)cc1 [NCGC00015822-15]
  IC50/EC50, 5mMGluc_INS1E SecretionMod (assay number 8): 15.3614 µM

## CCCN1CCCC[C@H]1C(=O)Nc1c(C)cccc1C [NCGC00164597-02]
  5mMGluc_INS1E SecretionMod IC50/EC50: > 33.33 µM

## CCN(CC)C(C)CN1c2ccccc2Sc2ccccc21.Cl (stereo not drawn) [NCGC00178860-06]
  5mMGluc_INS1E SecretionMod IC50/EC50: > 33.33 µM

## CN(C)CCCOc1nn(Cc2ccccc2)c2ccccc12.Cl [NCGC00016397-04]
  IC50/EC50, 5mMGluc_INS1E SecretionMod (assay number 8): 21.3864 µM

## CCC1=C(C)CN(C(=O)NCCc2ccc(S(=O)(=O)NC(=O)NC3CCC(C)CC3)cc2)C1=O (stereo not drawn) [NCGC00016960-07]
  5mMGluc_INS1E SecretionMod IC50/EC50: 0.00406 µM

## CN1CCN(CCC(=O)N2c3ccccc3Sc3ccc(C(F)(F)F)cc32)CC1 [NCGC00160483-02]
  5mMGluc_INS1E SecretionMod IC50/EC50: > 11.11 µM

## COc1ccc2c(c1)C(=O)N(CCc1ccc(S(=O)(=O)NC(=O)NC3CCCCC3)cc1)C(=O)C2(C)C [NCGC00016819-05]
  5mMGluc_INS1E SecretionMod IC50/EC50: 0.2299 µM

## CC(=O)c1ccc2c(c1)N(CCCN(C)C)c1ccccc1S2 [NCGC00016634-04]
  5mMGluc_INS1E SecretionMod IC50/EC50: 11.3835 µM

## COCCCOc1ccnc(C[S+]([O-])c2nc3ccccc3[n-]2)c1C.[Na+] (stereo not drawn) [NCGC00159518-05]
  IC50/EC50, 5mMGluc_INS1E SecretionMod (assay number 8): > 33.33 µM

## N=c1nc(N2CCCCC2)cc(N)n1O [NCGC00015673-13]
  IC50/EC50, 5mMGluc_INS1E SecretionMod (assay number 8): > 33.33 µM

## CN(C)CCN1C(=O)c2ccccc2N(C)c2ccccc21 [NCGC00160395-04]
  IC50/EC50, 5mMGluc_INS1E SecretionMod (assay number 8): > 33.33 µM

## CCN(CC)CCOc1ccc(Cc2ccccc2)cc1 [NCGC00024762-04]
  5mMGluc_INS1E SecretionMod IC50/EC50: > 33.33 µM

## CN1CCN2c3ccccc3Cc3ccccc3C2C1 (stereo not drawn) [NCGC00015656-12]
  5mMGluc_INS1E SecretionMod IC50/EC50: > 11.11 µM

## CN(C)CC/C=C1\c2ccccc2Sc2ccc(Cl)cc21 [NCGC00013683-06]
  5mMGluc_INS1E SecretionMod IC50/EC50: > 33.33 µM

## CNCCCCOc1ccccc1Cc1ccccc1 [NCGC00024778-02]
  5mMGluc_INS1E SecretionMod IC50/EC50: > 33.33 µM
